Where two headings read alike, the source gives them in different places.
Legend:
[1] = tested on: SARS-CoV-2 S BA.5; assay type: cell-based; settings: for IC50: read-out: IC50, inhibition of S-mediated cell–cell fusion, SARS-CoV-2 BA.5; for IC90: read-out: IC90, inhibition of S-mediated cell–cell fusion, SARS-CoV-2 BA.5
[2] = pH 7.4
[3] = Chemical stability in PBS by UPLC; assay type: physicochemical; settings: room temperature; for Integrity during the solubility study: up to 168 h, UPLC, 220 nm; for Peptide degradation after incubation in PBS: 2 weeks, UPLC 220 nm, disulfide peak after 1 day removed by TCEP
[4] = target: SARS-CoV-2 HRN peptide (55 residues) (Severe acute respiratory syndrome coronavirus 2, UniProt P0DTC2); assay type: binding; settings: pH 7.4
[5] = target: SARS-CoV-2 tHRN peptide (44 residues) (Severe acute respiratory syndrome coronavirus 2, UniProt P0DTC2); assay type: binding

Molecule	IC50 [1]	Solubility relative to HRC-L [2]	Integrity during the solubility study [3]	IC90 [1]	Temperature above which disruption of the helical assembly with HRN is detectable [4]	Tm of 1:1 mixture with tHRN ([5]; 5-95 °C)	Peptide degradation after incubation in PBS [3]	further results
Ac-PDVDLGDISQINASVVNIEYEIKKLEEVAKKLEESLIDLQEL-NH2 [QE-EXT]	5.6 ± 0.72 nM	–	–	–	–	–	–	–
Ac-SIDQINATFVDIEYEIKKLEEVAKKLEESYIDLKELGSGSGC-NH2 [SK-L]	–	~ two-fold	remained intact	–	–	–	–	–
Ac-DISQINASVVNIEYEIKKLEEVAKKLEESLIDLQEL-NH2 [QE]	7 ± 2.1 nM	–	–	14 ± 4 nM	> 70 °C	65 +/- 0.5 °C	No peptide degradation was observed	–
Ac-DISQINASVVNIEYEIKKLEEVAKKLEESLIDLQELGSGSGC-NH2 [QE-L]	–	~ two-fold	remained intact	–	–	–	–	–
Ac-SIDQINATFVDIEYEIKKLEEVAKKLEESYIDLKEL-NH2 [SK]	6.2 ± 1.1 nM	–	–	14 ± 2 nM	> 70 °C	72 +/- 0.3 °C	No peptide degradation was observed	–
CC[C@H](C)[C@H](NC(=O)[C@H](C)NC(=O)[C@H](CCC(=O)O)NC(=O)[C@H](CCC(=O)O)NC(=O)[C@H](CC(C)C)NC(=O)[C@H](CCCCN)NC(=O)[C@H](CCCCN)NC(=O)[C@H](CCSC)NC(=O)[C@H](CCC(=O)O)NC(=O)[C@H](Cc1ccc(O)cc1)NC(=O)[C@H](CCC(=O)O)NC(=O)[C@H](CC(C)C)NC(=O)[C@H](CC(=O)O)NC(=O)[C@H](CC(C)C)NC(=O)[C@H](Cc1ccccc1)NC(=O)[C@@H](NC(=O)[C@@H](NC(=O)[C@H](CC(N)=O)NC(=O)[C@@H](NC(=O)[C@H](CCC(N)=O)NC(=O)[C@H](CC(=O)O)NC(=O)[C@H](CC(C)C)NC(=O)[C@H](CO)NC(C)=O)[C@@H](C)CC)C(C)C)[C@@H](C)O)C(=O)N[C@@H](CCCCN)C(=O)N[C@@H](CCCCN)C(=O)N[C@@H](CC(C)C)C(=O)N[C@@H](CCC(=O)O)C(=O)N[C@@H](CCC(=O)O)C(=O)N[C@@H](CO)C(=O)N[C@@H](Cc1ccc(O)cc1)C(=O)N[C@H](C(=O)N[C@@H](CC(=O)O)C(=O)N[C@@H](CC(C)C)C(=O)N[C@@H](CCCCN)C(=O)N[C@@H](CCC(=O)O)C(=O)N[C@@H](CC(C)C)C(N)=O)[C@@H](C)CC [EK1, reference compound]	–	–	–	–	–	–	–	Tm of 1:1 mixture with tHRN ([5]; pH 7.4): 38 ± 0.3 °C

— PMC11915835, “Enhancing the solubility of SARS-CoV-2 inhibitors to increase future prospects for clinical development” (Journal of Virology, 2025)
